Source: article PMC5097697 (Analytical biochemistry, 2016)

Tested on: Sinapis alba myrosinase
Assay: HPLC progress curves
Type: biochemical
Settings: pH 7.4, 37 °C; pooled wavelength data (220, 227, 235, 241 nm); myrosinase 8.83 U/ml

Work on O=S(=O)(O)O/N=C(/CC(c1ccccc1)c1ccccc1)S[C@@H]1O[C@H](CO)[C@@H](O)[C@H](O)[C@H]1O [compound 5, 2,2-Diphenylethyl glucosinolate] yielded a Km of 798 ± 71 µM.
